Measurements taken from publication PMC9073595, “Synthesis, human topoisomerase IIα inhibitory properties and molecular modeling studies of anti-proliferative curcumin mimics” (RSC Advances, 2019).

Columns and labels:
[1] = system: HCT116 (colon) carcinoma cell line; assay: MTT anti-proliferative assay, HCT116; format: cell-based; conditions: Homo sapiens, HCT-116, 72 h; read-out: IC50, μM ± SD, HCT116
[2] = system: MCF7 (breast) carcinoma cell line; assay: MTT anti-proliferative assay, MCF7; format: cell-based; conditions: Homo sapiens, MCF7, 72 h; read-out: IC50, μM ± SD, MCF7
[3] = system: A431 (squamous skin) carcinoma cell line; assay: MTT anti-proliferative assay, A431; format: cell-based; conditions: Homo sapiens, A-431, 72 h; read-out: IC50, μM ± SD, A431
[4] = system: RPE1 (normal human immortalized retinal pigment epithelial cell line); assay: MTT assay on normal cells, RPE1; format: cell-based; conditions: RPE-1, RPE1 normal (non-cancer) cell line, read-out: IC50, μM ± SD, RPE1
Protocol: In-vitro antitumor screening
The targeted piperidinecarboxamides 24‒51 were screened for their antitumor properties against HCT116 (colon), MCF7 (breast) and A431 (squamous skin) carcinoma cell lines by the standard mitochondrial dependent reduction of yellow MTT [3-(4,5-dimethylthiazol-2-yl)-2,5-diphenyl-tetrazolium bromide] to purple formazan technique.11 Cells were suspended in McCoy’s 5A medium for HCT116, DMEM for MCF-7 and A431 in addition to 1% antibiotic–antimycotic mixture (10000 μg ml-1 potassium penicillin, 10000 μg ml-1 streptomycin sulfate and 25 μg ml-1 amphotericin B), 10% fetal bovine serum and 1% L-glutamine at 37 °C, under 5% CO2 and 95% humidity. Cells were seeded at concentration of 30000 cells per well in fresh complete growth medium in 96-well tissue culture microtiter plates for 24 h. Media was aspirated, fresh complete medium was added and cells were incubated with different concentrations of the tested compound to give a final concentration of [50, 25, 12.5 and 6.25 μM ([…] and 0.375 μM for the high potent analogues)]. 0.5% DMSO was used as negative control and 5-fluorouracil was used as positive control (standard reference). Triplicate wells were prepared for each individual dose. After 72 h of incubation, medium was aspirated, 40 μl MTT salt (2.5 mg ml-1) were added to each well and incubated for further 4 h at 37 °C.
To stop the reaction and dissolve the formed crystals, 150 μl of 10% sodium dodecyl sulfate (SDS) in deionized water were added to each well and incubated overnight at 37 °C. The absorbance was then measured at 570 nm and a reference wavelength of 595 nm.
Data were collected as mean values for experiments performed in triplicates for each individual dose which had been measured by MTT assay. Control experiments did […]
survival was calculated according to equ. (1).
Surviving fraction = … . (1)
The synthesized compounds 24‒51 were also tested against RPE1 (normal human immortalized retinal pigment epithelial cell line) cell to determine the toxicity/selectivity […]
towards normal cells relative to the carcinoma cell lines utilized. The IC50 (concentration […]
was determined using Graph-Pad PRISM version-5 software. Statistical calculations for determination of the mean and standard error values were determined by SPSS 16 […]
8:1 which is the ratio between the data points and the number of QSAR descriptor).
Human DNA topoisomerase IIα inhibitory properties

[5] = target: T1, human DNA topoisomerase IIα (Homo sapiens, UniProt P11388); assay: Human DNA topoisomerase IIα activity assay (TopoGEN kit, plasmid based); format: biochemical
T1 construct: purchased TopoGEN, Inc
T1 sequence (P11388 whole entry): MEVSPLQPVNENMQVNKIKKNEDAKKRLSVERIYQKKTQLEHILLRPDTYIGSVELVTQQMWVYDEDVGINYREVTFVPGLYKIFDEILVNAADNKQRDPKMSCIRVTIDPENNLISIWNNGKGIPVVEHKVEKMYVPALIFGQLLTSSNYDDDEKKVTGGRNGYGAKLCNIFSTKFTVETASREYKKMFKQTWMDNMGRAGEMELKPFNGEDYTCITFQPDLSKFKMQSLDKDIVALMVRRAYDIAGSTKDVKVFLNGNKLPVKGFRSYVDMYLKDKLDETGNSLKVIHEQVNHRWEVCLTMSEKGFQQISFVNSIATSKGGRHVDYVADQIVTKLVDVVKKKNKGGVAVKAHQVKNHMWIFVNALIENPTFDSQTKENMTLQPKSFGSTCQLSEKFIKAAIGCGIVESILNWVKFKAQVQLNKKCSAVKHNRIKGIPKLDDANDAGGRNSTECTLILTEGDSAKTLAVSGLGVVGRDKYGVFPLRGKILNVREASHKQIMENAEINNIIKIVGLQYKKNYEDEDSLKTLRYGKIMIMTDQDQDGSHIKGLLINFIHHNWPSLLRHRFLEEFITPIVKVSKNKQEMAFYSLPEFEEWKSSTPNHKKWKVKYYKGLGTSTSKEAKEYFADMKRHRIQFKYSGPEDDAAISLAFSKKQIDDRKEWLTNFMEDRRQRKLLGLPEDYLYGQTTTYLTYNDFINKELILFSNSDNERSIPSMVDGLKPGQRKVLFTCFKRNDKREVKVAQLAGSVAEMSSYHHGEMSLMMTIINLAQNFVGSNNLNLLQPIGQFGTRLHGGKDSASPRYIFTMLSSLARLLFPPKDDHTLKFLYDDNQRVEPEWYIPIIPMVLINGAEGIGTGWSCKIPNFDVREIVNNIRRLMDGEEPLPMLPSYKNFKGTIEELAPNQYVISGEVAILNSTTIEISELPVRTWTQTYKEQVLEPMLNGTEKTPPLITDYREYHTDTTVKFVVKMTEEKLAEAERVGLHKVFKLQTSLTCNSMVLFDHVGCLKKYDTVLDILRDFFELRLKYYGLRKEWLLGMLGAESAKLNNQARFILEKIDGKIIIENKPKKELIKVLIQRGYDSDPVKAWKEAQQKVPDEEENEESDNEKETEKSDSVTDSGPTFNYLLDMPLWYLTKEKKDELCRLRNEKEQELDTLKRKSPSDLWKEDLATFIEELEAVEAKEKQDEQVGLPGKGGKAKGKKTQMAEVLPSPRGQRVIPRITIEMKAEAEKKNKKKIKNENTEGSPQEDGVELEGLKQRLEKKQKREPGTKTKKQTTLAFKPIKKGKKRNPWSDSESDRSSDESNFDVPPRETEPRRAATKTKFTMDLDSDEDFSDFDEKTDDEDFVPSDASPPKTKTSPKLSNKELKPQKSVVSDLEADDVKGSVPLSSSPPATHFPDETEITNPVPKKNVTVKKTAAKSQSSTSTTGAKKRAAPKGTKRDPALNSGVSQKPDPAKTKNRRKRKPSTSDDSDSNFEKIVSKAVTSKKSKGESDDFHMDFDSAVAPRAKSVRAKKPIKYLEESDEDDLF

Row | IC50 [1] [µM] | IC50 [2] [µM] | IC50 [3] [µM] | IC50 [5] [µM] | melting point [°C] | SMILES | IC50 [4] [µM]
1 | 1.44 ± 0.17 | 3.96 ± 0.29 | 2.57 ± 0.15 | 41.3 ± 1.6 | 221 to 223 | Cc1ccc(/C=C2\CN(C(=O)Nc3ccccc3)C/C(=C\c3ccc(C)cc3)C2=O)cc1 [Compound 39, 3,5-Bis[(E)-4-methylbenzylidene]-4-oxo-N-phenylpiperidine-1-carboxamide] | > 50
2 | 1.38 ± 0.15 | 5.85 ± 0.31 | 11.3 ± 1.1 | 39.3 ± 1.52 | 212 to 214 | COc1ccc(/C=C2\CN(C(=O)Nc3ccc(OC)cc3)C/C(=C\c3ccc(OC)cc3)C2=O)cc1 [Compound 45, 3,5-Bis[(E)-4-methoxybenzylidene]-N-(4-methoxyphenyl)-4-oxopiperidine-1-carboxamide] | > 50
3 | 0.56 ± 0.03 | 2.16 ± 0.15 | 1.33 ± 0.17 | 35 ± 2.08 | 178 to 180 | O=C1/C(=C/c2ccc(F)cc2)CN(C(=O)NCc2ccccc2)C/C1=C\c1ccc(F)cc1 [Compound 38, N-Benzyl-3,5-bis[(E)-4-fluorobenzylidene]-4-oxopiperidine-1-carboxamide] | 10.9 ± 1.42
4 | 0.58 ± 0.07 | 1.13 ± 0.29 | 0.64 ± 0.08 | 41.8 ± 2.42 | 185 to 187 | O=C1/C(=C/c2ccc(Cl)cc2)CN(C(=O)Nc2ccc(Cl)cc2)C/C1=C\c1ccc(Cl)cc1 [Compound 30, 3,5-Bis[(E)-4-chlorobenzylidene]-N-(4-chlorophenyl)-4-oxopiperidine-1-carboxamide] | 4.89 ± 1.97
5 | 1.29 ± 0.19 | 4.89 ± 0.25 | 7.98 ± 1.34 | 33 ± 1.28 | 177 to 179 | COc1ccc(/C=C2\CN(C(=O)NCc3ccccc3)C/C(=C\c3ccc(OC)cc3)C2=O)cc1 [Compound 47, N-Benzyl-3,5-bis[(E)-4-methoxybenzylidene]-4-oxopiperidine-1-carboxamide] | > 50
6 | 23 ± 1.82 | 4.9 ± 0.26 | 8.75 ± 0.4 | 31.5 ± 1.22 | 166 to 168 | Cc1ccc(/C=C2\CN(C(=O)NCc3ccccc3)C/C(=C\c3ccc(C)cc3)C2=O)cc1 [Compound 42, N-Benzyl-3,5-bis[(E)-4-methylbenzylidene]-4-oxopiperidine-1-carboxamide] | 47 ± 2.17
7 | 0.7 ± 0.06 | 1.33 ± 0.24 | 1.29 ± 0.15 | 29 ± 1.39 | 205 to 207 | O=C1/C(=C/c2ccc(Cl)cc2)CN(C(=O)Nc2ccccc2)C/C1=C\c1ccc(Cl)cc1 [Compound 29, 3,5-Bis[(E)-4-chlorobenzylidene]-4-oxo-N-phenylpiperidine-1-carboxamide] | 9.67 ± 2.03
